Counter-ions that a name gives are not always drawn. Like-named read-outs stand apart in the source and are kept apart here.
Tests used:
mouse TAAR1 = mouse TAAR1 (Mus musculus (Mouse), UniProt Q923Y8); assay: Radioligand binding assay on mouse TAAR1
rat TAAR1 = rat TAAR1 (Rattus norvegicus (Rat), UniProt Q923Y9); assay: Radioligand binding assay on rat TAAR1;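 further: stably transfected HEK293 cell membranes with a tritiated radioligand, 1 h incubation at 4 °C, nonspecific binding taken as binding with 10 µM unlabeled ligand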
Chain of rat TAAR1 (Q923Y9 whole entry): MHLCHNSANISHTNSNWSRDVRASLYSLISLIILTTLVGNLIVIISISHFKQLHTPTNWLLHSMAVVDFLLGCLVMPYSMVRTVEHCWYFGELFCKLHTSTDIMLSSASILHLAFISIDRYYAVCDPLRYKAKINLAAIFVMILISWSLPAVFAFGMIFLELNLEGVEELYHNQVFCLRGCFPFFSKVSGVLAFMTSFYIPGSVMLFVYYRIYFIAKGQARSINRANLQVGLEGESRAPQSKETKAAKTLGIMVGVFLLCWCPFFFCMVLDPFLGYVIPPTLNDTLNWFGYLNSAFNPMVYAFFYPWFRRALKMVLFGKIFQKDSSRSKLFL

[1] = read-out: Ki (μM) mouse, mouse TAAR1, membranes of HEK-293 cells, radioligand displacement
[2] = read-out: Ki (μM) rat, rat TAAR1, membranes of HEK-293 cells, radioligand displacement

Chain of mouse TAAR1 (Q923Y8 whole entry): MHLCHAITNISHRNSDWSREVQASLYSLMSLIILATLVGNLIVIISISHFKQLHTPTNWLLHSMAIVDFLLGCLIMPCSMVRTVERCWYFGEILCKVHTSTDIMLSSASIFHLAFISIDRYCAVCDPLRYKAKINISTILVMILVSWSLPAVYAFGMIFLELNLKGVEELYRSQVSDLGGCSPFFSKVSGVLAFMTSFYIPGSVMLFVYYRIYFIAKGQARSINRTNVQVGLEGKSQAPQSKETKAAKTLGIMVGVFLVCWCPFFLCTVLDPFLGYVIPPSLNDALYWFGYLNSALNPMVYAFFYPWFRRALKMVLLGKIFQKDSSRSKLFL

In the case of N#Cc1ccc(-n2cc(C(=O)Nc3ccc([C@H]4CNCCO4)cc3)cn2)c(F)c1 [Example 23, (S)-1-(4-cyano-2-fluorophenyl)-N-(4-(morpholin-2-yl)phenyl)-1H-pyrazole-4-carboxamide hydrochloride], the Ki (mouse TAAR1; [1]) is reported as 0.0041 µM and the Ki (rat TAAR1; [2]) is reported as 0.007 µM.

O=C(Nc1ccc([C@H]2CNCCO2)cc1)c1cnn(-c2ccc(C(F)(F)F)nc2)c1 [Example 51, (S)—N-(4-(morpholin-2-yl)phenyl)-1-(6-(trifluoromethyl)pyridin-3-yl)-1H-pyrazole-4-carboxamide hydrochloride] was tested, and the Ki (mouse TAAR1; [1]) was 0.0064 µM and the Ki (rat TAAR1; [2]) was 0.0048 µM.

For O=C(Nc1ccc([C@H]2CNCCO2)cc1)c1cnn(-c2ncc(C(F)(F)F)cn2)c1 [Example 37, (S)—N-(4-(morpholin-2-yl)phenyl)-1-(5-(trifluoromethyl)pyrimidin-2-yl)-1H-pyrazole-4-carboxamide hydrochloride], the Ki (mouse TAAR1; [1]) was 0.0615 µM and the Ki (rat TAAR1; [2]) was 0.0931 µM.

With O=C(Nc1ccc([C@H]2CNCCO2)cc1)c1cnn(-c2ccc3c(c2)OC(F)(F)O3)c1 [Example 29, (S)-1-(2,2-difluorobenzo[d][1,3]dioxol-5-yl)-N-(4-(morpholin-2-yl)phenyl)-1H-pyrazole-4-carboxamide hydrochloride] the Ki (mouse TAAR1; [1]) was 0.0023 µM and the Ki (rat TAAR1; [2]) was 0.0014 µM.

With O=C(Nc1ccc([C@H]2CNCCO2)cc1)c1cnn(-c2cnc(Cl)cn2)c1 [Example 46, (S)-1-(5-chloropyrazin-2-yl)-N-(4-(morpholin-2-yl)phenyl)-1H-pyrazole-4-carboxamide hydrochloride] the Ki (mouse TAAR1; [1]) was 0.0031 µM and the Ki (rat TAAR1; [2]) was 0.0056 µM.

Cc1cncc(-n2cc(C(=O)Nc3ccc([C@H]4CNCCO4)cc3)cn2)n1 [Example 39, (S)-1-(6-methylpyrazin-2-yl)-N-(4-(morpholin-2-yl)phenyl)-1H-pyrazole-4-carboxamide hydrochloride] showed a Ki (mouse TAAR1; [1]) of 0.0088 µM and a Ki (rat TAAR1; [2]) of 0.0435 µM.

With O=C(Nc1ccc([C@H]2CNCCO2)cc1)c1cnn(-c2nc(C(F)(F)F)cs2)c1 [Example 57, (S)—N-(4-(morpholin-2-yl)phenyl)-1-(4-(trifluoromethyl)thiazol-2-yl)-1H-pyrazole-4-carboxamide hydrochloride] the Ki (mouse TAAR1; [1]) was 0.0019 µM and the Ki (rat TAAR1; [2]) was 0.0011 µM.

Work on N#Cc1nccnc1-n1cc(C(=O)Nc2ccc([C@H]3CNCCO3)cc2)cn1 [Example 52, (S)-1-(3-cyanopyrazin-2-yl)-N-(4-(morpholin-2-yl)phenyl)-1H-pyrazole-4-carboxamide hydrochloride] yielded a Ki (mouse TAAR1; [1]) of 0.0179 µM and a Ki (rat TAAR1; [2]) of 0.0451 µM.

For O=C(Nc1ccc([C@H]2CNCCO2)cc1)c1cnn(-c2cccc(OC(F)F)c2)c1 [Example 22, (S)-1-(3-(difluoromethoxy)phenyl)-N-(4-(morpholin-2-yl)phenyl)-1H-pyrazole-4-carboxamide hydrochloride], the Ki (mouse TAAR1; [1]) was 0.001 µM and the Ki (rat TAAR1; [2]) was 0.0014 µM.

Cc1cnc(-n2cc(C(=O)Nc3ccc([C@H]4CNCCO4)cc3)cn2)cn1 [Example 40, (S)-1-(5-methylpyrazin-2-yl)-N-(4-(morpholin-2-yl)phenyl)-1H-pyrazole-4-carboxamide hydrochloride] gave a Ki (mouse TAAR1; [1]) of 0.0119 µM and a Ki (rat TAAR1; [2]) of 0.126 µM.

For O=C(Nc1ccc([C@H]2CNCCO2)cc1)c1cnn(-c2ccc(C(F)(F)F)cn2)c1 [Example 11, (S)—N-(4-(morpholin-2-yl)phenyl)-1-(5-(trifluoromethyl)pyridin-2-yl)-1H-pyrazole-4-carboxamide hydrochloride], the Ki (mouse TAAR1; [1]) was 0.0023 µM and the Ki (rat TAAR1; [2]) was 0.0023 µM.

COc1ccc(-n2cc(C(=O)Nc3ccc([C@H]4CNCCO4)cc3)cn2)cc1 [Example 3, (S)-1-(4-methoxyphenyl)-N-(4-(morpholin-2-yl)phenyl)-1H-pyrazole-4-carboxamide hydrochloride] showed a Ki (mouse TAAR1; [1]) of 0.0025 µM and a Ki (rat TAAR1; [2]) of 0.0165 µM.

N#Cc1ccc(-n2cc(C(=O)Nc3ccc([C@H]4CNCCO4)cc3)cn2)nc1 [Example 8, (S)-1-(5-cyanopyridin-2-yl)-N-(4-(morpholin-2-yl)phenyl)-1H-pyrazole-4-carboxamide hydrochloride] gave a Ki (mouse TAAR1; [1]) of 0.0089 µM and a Ki (rat TAAR1; [2]) of 0.0147 µM.

In the case of O=C(Nc1ccc([C@H]2CNCCO2)cc1)c1cnn(-c2cncc(Cl)n2)c1 [Example 33, (S)-1-(6-chloropyrazin-2-yl)-N-(4-(morpholin-2-yl)phenyl)-1H-pyrazole-4-carboxamide hydrochloride], the Ki (mouse TAAR1; [1]) is reported as 0.0032 µM and the Ki (rat TAAR1; [2]) is reported as 0.0068 µM.

With O=C(Nc1ccc([C@H]2CNCCO2)cc1)c1cnn(-c2cncc(C(F)(F)F)n2)c1 [Example 38, (S)—N-(4-(morpholin-2-yl)phenyl)-1-(6-(trifluoromethyl)pyrazin-2-yl)-1H-pyrazole-4-carboxamide hydrochloride] the Ki (mouse TAAR1; [1]) was 0.0075 µM and the Ki (rat TAAR1; [2]) was 0.0059 µM.

O=C(Nc1ccc([C@H]2CNCCO2)cc1)c1cnn(-c2ccc(I)cn2)c1 [Example 10, (S)-1-(5-iodopyridin-2-yl)-N-(4-(morpholin-2-yl)phenyl)-1H-pyrazole-4-carboxamide hydrochloride] gave a Ki (mouse TAAR1; [1]) of 0.0012 µM and a Ki (rat TAAR1; [2]) of 0.0041 µM.

Work on O=C(Nc1ccc([C@@H]2CNCCO2)cc1)c1cnn(-c2ccc(F)cc2)c1 [Example 12, (R)-1-(4-fluorophenyl)-N-(4-(morpholin-2-yl)phenyl)-1H-pyrazole-4-carboxamide hydrochloride] yielded a Ki (mouse TAAR1; [1]) of 0.0012 µM and a Ki (rat TAAR1; [2]) of 0.0011 µM.

Compound N#Cc1ccc(-n2cc(C(=O)Nc3ccc([C@H]4CNCCO4)cc3)cn2)cc1 [Example 6, (S)-1-(4-cyanophenyl)-N-(4-(morpholin-2-yl)phenyl)-1H-pyrazole-4-carboxamide hydrochloride] has a Ki (mouse TAAR1; [1]) of 0.0028 µM and a Ki (rat TAAR1; [2]) of 0.007 µM.

Compound O=C(Nc1ccc(C2CCCNC2)cc1)c1cnn(-c2ccc(OC(F)F)cc2)c1 (racemic) [Example 55, (RS)-1-(4-difluoromethoxy-phenyl)-1H-pyrazole-4-carboxylic acid (4-piperidin-3-yl-phenyl)-amide hydrochloride] has a Ki (mouse TAAR1) of 0.002 µM and a Ki (rat TAAR1) of 0.003 µM.

In the case of O=C(Nc1ccc([C@H]2CNCCO2)cc1)c1cnn(-c2ccc(Cl)cn2)c1 [Example 7, (S)-1-(5-chloropyridin-2-yl)-N-(4-(morpholin-2-yl)phenyl)-1H-pyrazole-4-carboxamide hydrochloride], the Ki (mouse TAAR1; [1]) is reported as 0.0016 µM and the Ki (rat TAAR1; [2]) is reported as 0.0046 µM.

With Cc1c(C(=O)Nc2ccc([C@H]3CNCCO3)cc2)cnn1-c1ccc(C#N)cc1 [Example 35, (S)-1-(4-cyanophenyl)-5-methyl-N-(4-(morpholin-2-yl)phenyl)-1H-pyrazole-4-carboxamide hydrochloride] the Ki (mouse TAAR1; [1]) was 0.0601 µM and the Ki (rat TAAR1; [2]) was 0.167 µM.

O=C(Nc1ccc([C@H]2CNCCO2)cc1)c1cnn(-c2ccnc(C(F)(F)F)c2)c1 [Example 50, (S)—N-(4-(morpholin-2-yl)phenyl)-1-(2-(trifluoromethyl)pyridin-4-yl)-1H-pyrazole-4-carboxamide hydrochloride] was tested, and the Ki (mouse TAAR1; [1]) was 0.0077 µM and the Ki (rat TAAR1; [2]) was 0.0038 µM.

Cc1c(C(=O)Nc2ccc([C@H]3CNCCO3)cc2)cnn1-c1ccc(OC(F)F)cc1 [Example 31, (S)-1-(4-(difluoromethoxy)phenyl)-5-methyl-N-(4-(morpholin-2-yl)phenyl)-1H-pyrazole-4-carboxamide hydrochloride] was tested, and the Ki (mouse TAAR1; [1]) was 0.0013 µM and the Ki (rat TAAR1; [2]) was 0.045 µM.

In the case of O=C(Nc1ccc([C@H]2CNCCO2)cc1)c1cnn(-c2ccnc(C(F)(F)F)n2)c1 [Example 34, (S)—N-(4-(morpholin-2-yl)phenyl)-1-(2-(trifluoromethyl)pyrimidin-4-yl)-1H-pyrazole-4-carboxamide hydrochloride], the Ki (mouse TAAR1; [1]) is reported as 0.0054 µM and the Ki (rat TAAR1; [2]) is reported as 0.0035 µM.

In the case of O=C(Nc1ccc([C@H]2CNCCO2)cc1)c1cnn(-c2nccc(C(F)(F)F)n2)c1 [Example 48, (S)—N-(4-(morpholin-2-yl)phenyl)-1-(4-(trifluoromethyl)pyrimidin-2-yl)-1H-pyrazole-4-carboxamide hydrochloride], the Ki (mouse TAAR1; [1]) is reported as 0.0531 µM and the Ki (rat TAAR1; [2]) is reported as 0.149 µM.

COc1cccc(-n2cc(C(=O)Nc3ccc([C@H]4CNCCO4)cc3)cn2)n1 [Example 18, (S)-1-(6-methoxypyridin-2-yl)-N-(4-(morpholin-2-yl)phenyl)-1H-pyrazole-4-carboxamide hydrochloride] showed a Ki (mouse TAAR1; [1]) of 0.001 µM and a Ki (rat TAAR1; [2]) of 0.0029 µM.

In the case of N#Cc1cc(Br)ccc1-n1cc(C(=O)Nc2ccc([C@H]3CNCCO3)cc2)cn1 [Example 17, (S)-1-(4-bromo-2-cyanophenyl)-N-(4-(morpholin-2-yl)phenyl)-1H-pyrazole-4-carboxamide hydrochloride], the Ki (mouse TAAR1; [1]) is reported as 0.0021 µM and the Ki (rat TAAR1; [2]) is reported as 0.0015 µM.

Compound O=C(Nc1ccc([C@@H]2CNCCO2)cc1)c1cnn(-c2ccc(OC(F)F)cc2)c1 [Example 27, (R)-1-(4-(difluoromethoxy)phenyl)-N-(4-(morpholin-2-yl)phenyl)-1H-pyrazole-4-carboxamide hydrochloride] has a Ki (mouse TAAR1; [1]) of 0.0013 µM and a Ki (rat TAAR1; [2]) of 0.001 µM.

O=C(Nc1ccc([C@H]2CNCCO2)cc1)c1cnn(-c2cc(C3CC3)ncn2)c1 [Example 56, (S)-1-(6-cyclopropylpyrimidin-4-yl)-N-(4-(morpholin-2-yl)phenyl)-1H-pyrazole-4-carboxamide hydrochloride] was tested, and the Ki (mouse TAAR1; [1]) was 0.0051 µM and the Ki (rat TAAR1; [2]) was 0.0052 µM.

Compound N#Cc1ccc(-n2cc(C(=O)Nc3ccc([C@@H]4CNCCO4)cc3)cn2)c(F)c1 [Example 49, (R)-1-(4-cyano-2-fluorophenyl)-N-(4-(morpholin-2-yl)phenyl)-1H-pyrazole-4-carboxamide hydrochloride] has a Ki (mouse TAAR1; [1]) of 0.0049 µM and a Ki (rat TAAR1; [2]) of 0.0033 µM.

O=C(Nc1ccc([C@H]2CNCCO2)cc1)c1cnn(-c2ncc(Cl)cn2)c1 [Example 30, (S)-1-(5-chloropyrimidin-2-yl)-N-(4-(morpholin-2-yl)phenyl)-1H-pyrazole-4-carboxamide hydrochloride] was tested, and the Ki (mouse TAAR1; [1]) was 0.0166 µM and the Ki (rat TAAR1; [2]) was 0.135 µM.

Work on O=C(Nc1ccc([C@H]2CNCCO2)cc1)c1cnn(-c2cc(C(F)(F)F)ncn2)c1 [Example 44, (S)—N-(4-(morpholin-2-yl)phenyl)-1-(6-(trifluoromethyl)pyrimidin-4-yl)-1H-pyrazole-4-carboxamide hydrochloride] yielded a Ki (mouse TAAR1; [1]) of 0.0099 µM and a Ki (rat TAAR1; [2]) of 0.0041 µM.

For O=C(Nc1ccc([C@H]2CNCCO2)cc1)c1cnn(-c2cc(C(F)(F)F)ccn2)c1 [Example 14, (S)—N-(4-(morpholin-2-yl)phenyl)-1-(4-(trifluoromethyl)pyridin-2-yl)-1H-pyrazole-4-carboxamide hydrochloride], the Ki (mouse TAAR1; [1]) was 0.0013 µM and the Ki (rat TAAR1; [2]) was 0.0019 µM.
